The nature of this series: Clarity, pH and aging stability of aqueous SnF2/STPP solutions. The settings on record: 2% stannous fluoride solution without STPP. It counts as physicochemical.

Protocol: The solutions are then further mixed at room temperature until a clear solution forms. All of the solutions contain 2% SnF2.
The solutions with a P:Sn molar ratio spanning from 1 to 15 containing 2% SnF2 are aged overnight at room temperature.
A different set of solutions with a P:Sn molar ratio of 2 and 5 are placed in a 50° C. oven for eight weeks.

For `[F][Sn][F]` [stannous fluoride], the Appearance after dissolution result is listed as “precipitate almost immediately after dissolution”.

(Values after US20170360664A1, “PERSONAL CARE COMPOSITIONS” (Colgate-Palmolive Company, priority 2015, published 2017).)
